SMILES strings stand for the structures.

For the assay, the target named is Serine/threonine-protein kinase PAK 5 (Homo sapiens) (UniProt Q9P286). Description: ligand-induced stabilization of human PAK5 kinase – biophysical, DSF, SYPRO orange, recombinant protein (AID 390). The following applies: recombinant PAK5, DSF thermal shift, at 10 µM, active compounds read high.
Chain of Serine/threonine-protein kinase PAK 5 (Homo sapiens) (Q9P286 whole entry, looked up): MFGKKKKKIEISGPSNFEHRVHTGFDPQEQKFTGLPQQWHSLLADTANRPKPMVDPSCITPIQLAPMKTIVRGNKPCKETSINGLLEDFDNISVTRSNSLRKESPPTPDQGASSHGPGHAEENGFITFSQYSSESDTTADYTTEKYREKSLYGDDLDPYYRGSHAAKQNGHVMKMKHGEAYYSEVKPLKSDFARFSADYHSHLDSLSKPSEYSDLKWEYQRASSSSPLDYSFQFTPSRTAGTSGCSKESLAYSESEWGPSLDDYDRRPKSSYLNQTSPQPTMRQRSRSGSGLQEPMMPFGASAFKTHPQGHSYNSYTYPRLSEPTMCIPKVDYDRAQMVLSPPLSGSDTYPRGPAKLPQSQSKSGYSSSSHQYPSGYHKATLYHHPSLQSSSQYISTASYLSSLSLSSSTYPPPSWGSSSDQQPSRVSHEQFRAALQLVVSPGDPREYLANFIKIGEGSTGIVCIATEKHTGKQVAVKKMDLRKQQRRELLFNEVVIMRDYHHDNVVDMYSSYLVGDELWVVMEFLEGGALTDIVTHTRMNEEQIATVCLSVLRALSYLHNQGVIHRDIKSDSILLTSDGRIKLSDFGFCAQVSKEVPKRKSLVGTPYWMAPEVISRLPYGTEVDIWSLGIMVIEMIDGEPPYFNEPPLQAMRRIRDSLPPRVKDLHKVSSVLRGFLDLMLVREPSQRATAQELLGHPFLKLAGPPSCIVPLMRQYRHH
For `O=C1Cc2c([nH]c3ccc(Br)cc23)-c2ccccc2N1`, the Tm shift is 3.5 Celsius.

In the case of `O=C1NCc2c1c1c3ccccc3[nH]c1c1[nH]c3ccccc3c21`, the Tm shift is 4.4 Celsius. For `OCC(O)CCO/N=C1/C(c2c(O)[nH]c3ccccc23)=Nc2ccccc21` (stereo not given), the Tm shift was 3.37 Celsius. With `NC(=O)c1ccc(-c2nc(-c3ccc4c(c3)OCCO4)c(-c3ccccn3)[nH]2)cc1`, the Tm shift is 4.1 Celsius. The same measure for `Nc1nc(Nc2ccc(S(N)(=O)=O)cc2)nn1C(=S)Nc1c(F)cccc1F`: 5.57 Celsius.

Take `CC(C)c1nn(-c2c(Cl)cccc2Cl)c2nc(Cc3ccc(OCCO)cc3)[nH]c(=O)c12`: the Tm shift was 3.1 Celsius. Turning to `CC(C)C(CO)Nc1nc(Nc2cccc(Cl)c2)c2ncn(C(C)C)c2n1` (stereo not given), the Tm shift is 4.5 Celsius. `N#CCCc1ccc2c(c1)-c1[nH]c3ccc(-n4oo4)cc3c1CC(=O)N2`: the Tm shift was 4.05 Celsius.

On to `O=Nc1c(-c2c(O)[nH]c3ccccc23)[nH]c2ccccc12`, for which the Tm shift was 4.2 Celsius. Take `CC(O)(O)C1(O)C[C@@H]2O[C@@]1(C)n1c3ccccc3c3c4c(c5c6ccccc6n2c5c31)C(=O)NC4` (stereo not given in full): the Tm shift was 5.05 Celsius. With `CCN(CC)CCNC(=O)c1c(C)[nH]c(/C=C2\C(=O)Nc3ccc(Cl)cc32)c1C`, the Tm shift was 4.47 Celsius. The result for `NS(=O)(=O)c1ccc(Nc2nc(OCC3CCCCC3)c3[nH]cnc3n2)cc1` reads 3.3 Celsius; that for `Cc1cc(Nc2nc(-c3ccccc3)nc3ccccc23)n[nH]1`, 4.73 Celsius; that for `Cn1cc(/C=C2\C(=O)Nc3ccc(S(N)(=O)=O)cc32)c2ccccc21`, 4.3 Celsius. The same measure for `NCCNc1ncc(C(N)=O)c(Nc2cccc(C(F)(F)F)c2)n1`: 5.9 Celsius; for `CCn1cnc2c(Nc3cccc(Cl)c3)nc(N[C@@H]3CCCC[C@@H]3N)nc21`: 6.75 Celsius. For `CC(=O)n1c(C2=c3ccccc3=NC2=O)c(O)[nH]c1=S`, the Tm shift was 3.1 Celsius. The result for `O=Nc1c(-c2c(O)[nH]c3cc(Br)ccc23)[nH]c2ccccc12` reads 4.6 Celsius; that for `O=C1Cc2c([nH]c3ccc(N(O)O)cc23)-c2ccccc2N1`, 3.9 Celsius.

Take `O=C1NC(=O)c2c1c1c3ccccc3n3c1c1c2c2ccccc2n1[C@@H]1CCC3O1`: the Tm shift is 3.69 Celsius.

For the origin of these results see PubChem BioAssay AID390 (SGCOxCompounds, 2006).
